Here are results for four compounds from the NIST ThermoML archive (doi:10.1016/j.jct.2012.11.011).

± gives the expanded uncertainty stated by the source.

The conditions of the data set: Liquid, Vibrating tube method.

In general, mass density refers to mass per unit of volume. Regarding `CCCCCCCCCC` [decane], the mass density runs as follows: (288.15 K, 100 kPa) 733.6 ± 0.3 kg/m3; (288.15 K, 5000 kPa) 737.2 ± 0.3 kg/m3; (288.15 K, 10000 kPa) 740.7 ± 0.4 kg/m3; (288.15 K, 20000 kPa) 747.2 ± 0.5 kg/m3; (288.15 K, 30000 kPa) 753.2 ± 0.5 kg/m3; (288.15 K, 40000 kPa) 758.9 ± 0.6 kg/m3. Further, the mass density was 726 ± 0.3 kg/m3 (298.15 K, 100 kPa); 730.2 ± 0.3 kg/m3 (298.15 K, 5000 kPa); 733.5 ± 0.4 kg/m3 (298.15 K, 10000 kPa); 740.3 ± 0.5 kg/m3 (298.15 K, 20000 kPa); 746.5 ± 0.5 kg/m3 (298.15 K, 30000 kPa); 752.2 ± 0.6 kg/m3 (298.15 K, 40000 kPa). For the same compound, the mass density runs as follows: (308.15 K, 100 kPa) 718.3 ± 0.3 kg/m3; (308.15 K, 5000 kPa) 722.4 ± 0.3 kg/m3; (308.15 K, 10000 kPa) 726.2 ± 0.4 kg/m3; (308.15 K, 20000 kPa) 733.4 ± 0.5 kg/m3; (308.15 K, 30000 kPa) 740 ± 0.5 kg/m3; (308.15 K, 40000 kPa) 745.9 ± 0.6 kg/m3.
Take `CCCCCCCC` [octane]: the mass density was 706.6 ± 0.3 kg/m3 (288.15 K, 100 kPa); 710.9 ± 0.4 kg/m3 (288.15 K, 5000 kPa); 714.7 ± 0.4 kg/m3 (288.15 K, 10000 kPa); 721.7 ± 0.5 kg/m3 (288.15 K, 20000 kPa); 728.1 ± 0.6 kg/m3 (288.15 K, 30000 kPa); 734.3 ± 0.7 kg/m3 (288.15 K, 40000 kPa). Further, the mass density reads like this: (298.15 K, 100 kPa) 698.6 ± 0.3 kg/m3; (298.15 K, 5000 kPa) 703.4 ± 0.4 kg/m3; (298.15 K, 10000 kPa) 707 ± 0.4 kg/m3; (298.15 K, 20000 kPa) 714.6 ± 0.5 kg/m3; (298.15 K, 30000 kPa) 721.4 ± 0.6 kg/m3; (298.15 K, 40000 kPa) 727.7 ± 0.7 kg/m3. Also, the mass density came to 690.5 ± 0.3 kg/m3 (308.15 K, 100 kPa); 695 ± 0.4 kg/m3 (308.15 K, 5000 kPa); 699.4 ± 0.4 kg/m3 (308.15 K, 10000 kPa); 707.3 ± 0.5 kg/m3 (308.15 K, 20000 kPa); 714.5 ± 0.6 kg/m3 (308.15 K, 30000 kPa); 720.8 ± 0.7 kg/m3 (308.15 K, 40000 kPa).
With `COC(=O)OC` [dimethyl carbonate], the mass density is given as 1076.5 ± 0.4 kg/m3 (288.15 K, 100 kPa); 1080.6 ± 0.4 kg/m3 (288.15 K, 5000 kPa); 1084.8 ± 0.4 kg/m3 (288.15 K, 10000 kPa); 1092.8 ± 0.4 kg/m3 (288.15 K, 20000 kPa); 1100.3 ± 0.5 kg/m3 (288.15 K, 30000 kPa); 1107.5 ± 0.5 kg/m3 (288.15 K, 40000 kPa). Also, the mass density is given as 1062.9 ± 0.4 kg/m3 (298.15 K, 100 kPa); 1068 ± 0.4 kg/m3 (298.15 K, 5000 kPa); 1072.1 ± 0.4 kg/m3 (298.15 K, 10000 kPa); 1080.5 ± 0.4 kg/m3 (298.15 K, 20000 kPa); 1088.5 ± 0.4 kg/m3 (298.15 K, 30000 kPa); 1095.9 ± 0.5 kg/m3 (298.15 K, 40000 kPa). For the same compound, the mass density is, setting by setting: (308.15 K, 100 kPa) 1049.4 ± 0.3 kg/m3; (308.15 K, 5000 kPa) 1054.6 ± 0.4 kg/m3; (308.15 K, 10000 kPa) 1059.4 ± 0.4 kg/m3; (308.15 K, 20000 kPa) 1068.3 ± 0.4 kg/m3; (308.15 K, 30000 kPa) 1076.7 ± 0.4 kg/m3; (308.15 K, 40000 kPa) 1084.5 ± 0.5 kg/m3.
Turning to `CCOC(=O)OCC` [diethyl carbonate], the mass density reads like this: (288.15 K, 100 kPa) 980.3 ± 0.2 kg/m3; (288.15 K, 5000 kPa) 984.5 ± 0.2 kg/m3; (288.15 K, 10000 kPa) 988.6 ± 0.2 kg/m3; (288.15 K, 20000 kPa) 996.3 ± 0.2 kg/m3; (288.15 K, 30000 kPa) 1003.6 ± 0.2 kg/m3; (288.15 K, 40000 kPa) 1010.5 ± 0.2 kg/m3. Further, the mass density (298.15 K, 100 kPa) was 968.9 ± 0.3 kg/m3; the mass density (298.15 K, 5000 kPa) was 973.8 ± 0.3 kg/m3; the mass density (298.15 K, 10000 kPa) is on record as 977.8 ± 0.2 kg/m3; the mass density (298.15 K, 20000 kPa) turned out to be 986 ± 0.2 kg/m3; the mass density (298.15 K, 30000 kPa) came to 993.6 ± 0.2 kg/m3; the mass density (298.15 K, 40000 kPa) is on record as 1000.8 ± 0.2 kg/m3. Besides, the mass density is, setting by setting: (308.15 K, 100 kPa) 957.7 ± 0.3 kg/m3; (308.15 K, 5000 kPa) 962.4 ± 0.3 kg/m3; (308.15 K, 10000 kPa) 967.1 ± 0.3 kg/m3; (308.15 K, 20000 kPa) 975.7 ± 0.3 kg/m3; (308.15 K, 30000 kPa) 983.8 ± 0.2 kg/m3; (308.15 K, 40000 kPa) 991.3 ± 0.2 kg/m3.
